{"source": "ChEMBL document CHEMBL5154921", "about": "“Discovery and Characterization of the First Nonpeptide Antagonists for the Relaxin-3/RXFP3 System” (J Med Chem, 2022)", "key": {"Relaxin-3 receptor 1 [1]": {"molecular_target": "T1, Relaxin-3 receptor 1 (Homo sapiens, UniProt Q9NSD7)", "T1 sequence (Q9NSD7 whole entry)": "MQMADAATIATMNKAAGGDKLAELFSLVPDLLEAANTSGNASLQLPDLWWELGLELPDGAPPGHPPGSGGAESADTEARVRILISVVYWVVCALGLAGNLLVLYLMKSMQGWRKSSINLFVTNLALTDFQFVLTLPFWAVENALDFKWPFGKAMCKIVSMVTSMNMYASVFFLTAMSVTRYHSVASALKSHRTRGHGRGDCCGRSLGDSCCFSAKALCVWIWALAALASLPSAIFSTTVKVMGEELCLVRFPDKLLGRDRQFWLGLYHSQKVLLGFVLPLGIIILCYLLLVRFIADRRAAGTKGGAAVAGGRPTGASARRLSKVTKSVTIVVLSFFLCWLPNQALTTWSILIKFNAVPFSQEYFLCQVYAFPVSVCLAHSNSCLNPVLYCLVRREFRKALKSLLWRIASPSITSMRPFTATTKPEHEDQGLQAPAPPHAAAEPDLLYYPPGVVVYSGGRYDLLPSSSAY"}, "Relaxin-3 receptor 1 [2]": {"molecular_target": "T1, Relaxin-3 receptor 1", "assay": "Antagonist activity at human RXFP3 expressed in CHO-K1 cells assessed as inhibition of relaxin-3 stimulated ERK1/2 phosphorylation preincubated for 15 mins followed by relaxin-3 addition for 5 mins", "type": "functional, cell-based"}, "Relaxin-3 receptor 1 [3]": {"molecular_target": "T1, Relaxin-3 receptor 1", "assay": "Antagonist activity at human RXFP3 expressed in CHO-K1 cells assessed as forskolin-induced cAMP accumulation measured after 30 mins in presence of relaxin-3 by TR-FRET assay", "type": "functional, cell-based"}}}
{"substance": "H-RAAPYGVRLSGREFIRAVIFTSR-NH2", "values": [{"measurement": "Ki", "setting": "Relaxin-3 receptor 1 [1]", "value": 11.1, "unit": "nM"}, {"measurement": "IC50", "setting": "Relaxin-3 receptor 1 [2]", "value": 7820, "unit": "nM"}, {"measurement": "IC50", "setting": "Relaxin-3 receptor 1 [3]", "value": 504, "unit": "nM"}]}
